Experimental data taken from US20140336248A1, “THERAPEUTIC COMPOSITIONS AND RELATED METHODS OF USE” (priority 2011, published 2014).

Legend:
Assay type in all cases: in vivo, mouse
ICR mice [1] = test: Tolerability 0.1, 0.3, 1.0, 3.0 mg/kg IV in 10% ethanol/10% Solutol HS 15, 4 days (Example M)
Description: (§1) Using the techniques described above in Example B, an aqueous vehicle comprising 10% ethanol (v/v) and 10% Solutol® HS 15 (v/v) was prepared. An appropriate amount of salinomycin sodium was dissolved into the vehicle to make solutions having concentrations of 0.02, 0.06, 0.2, and 0.3 mg/mL. Ten male ICR mice (Sino-British SIPPR/BK Lab Animal Ltd, Shanghai, China) were assigned to control and treatment groups. […] The individual animal number was marked on the tail, and study number comprised a unique identification for each animal. Animal identification was verified during the course of the study. The animals were housed two per cage in stainless steel suspended cage in an environmentally controlled room. SLACOM (Rodent Diet #20110615029, Shanghai SLAC Laboratory Animal Co. Ltd.) was available ad libitum. Temperature and humidity were monitored and recorded twice daily.
(§2) Each composition and the vehicle (control) were administered once daily to each of two mice via intravenous bolus injection for 4 consecutive days. The dose levels for the treated groups and the control group are in the below table. Individual doses were based on the most recent body weight.
(§3) Body weights for all animals were measured and recorded at receipt, prior to randomization, and once daily during the study. Body weight change was calculated for mean value of animals relative to Day 1 mean body weight value.

ICR mice [2] = test: Tolerability 0.1, 0.3, 1.0, 3.0 mg/kg IV in 5% ethanol/15% Solutol HS 15, 4 days (Example N)
Description: as §1, with “Example A,” for “Example B,”, “comprising 5%” for “comprising 10%”, “and 15%” for “and 10%”
as §2, §3

ICR mice [3] = test: Tolerability IV in 10% ethanol/10% Solutol HS 15, 5 days (Example K); conditions: for Clinical observations: post dosage
Description: Injectable salinomycin compositions were prepared as follows: 0.6 mg/mL stock solution: 1.2 mg of salinomycin sodium was added to 200 μL ethanol and vortexed for 2 minutes and sonicated for 30 seconds to yield a clear solution. To this solution was next added 200 μL Solutol® HS 15, with vortexing for 2 minutes. Finally, 1.6 mL water was added to produce a clear stock solution of 0.6 mg/mL salinomycin sodium.
Six male ICR mice (Sino-British SIPPR/BK Lab Animal Ltd, Shanghai, China) were assigned to control and treatment groups. […] The individual animal number marked on the tail, and study number comprised a unique identification for each animal. Animal identification was verified during the course of the study. The animals were housed two per cage in stainless steel suspended cage in an environmentally controlled room. SLACOM (Rodent Diet #20110615029, Shanghai SLAC Laboratory Animal Co. Ltd.) was available ad libitum. Temperature and humidity were monitored and recorded twice daily.
(§4) Each composition and the vehicle (control) were administered once daily to each of two mice via intravenous bolus injection for 5 consecutive days. The dose levels for the treated groups and the control group are in the below table. Individual doses were based on the most recent body weight.
as §3

ICR mice [4] = test: Tolerability 0.1, 0.3, 1.0 mg/kg IV in 3% propylene glycol/10% Solutol HS 15, 4 days (Example O); conditions: for Body weight: FIG. 8
Description: as §1, with “A,” for “B,”, “3% propylene glycol” for “10% ethanol”, “0.06,” for “0.06, 0.2,”, “0.2” for “0.3”, “Eight” for “Ten”
as §2, §3

ICR mice [5] = test: Tolerability 1.5, 2.0, 3.0 mg/kg IV in 1% ethanol/4% propylene glycol/5% Solutol HS 15 (Example I); conditions: for Body weight: FIG. 2
Description: Injectable salinomycin compositions were prepared as follows: A) 0.6 mg/mL composition: 3.03 mg of salinomycin sodium was added to 50 μL ethanol and vortexed for 1 minute to yield a clear solution. 200 μL of propylene glycol was then added and vortexed for 1 minute, yielding a clear solution. To this solution was next added 250 μL Solutol® HS 15, with vortexing for 1 minute and sonicating for 1 minute, to yield a clear solution.
Eight male ICR mice (Sino-British SIPPR/BK Lab Animal Ltd, Shanghai, China) were assigned to control and treatment groups. […] The individual animal number marked on the tail, and study number comprised a unique identification for each animal. Animal identification was verified during the course of the study. The animals were housed two per cage in stainless steel suspended cage in an environmentally controlled room. SLACOM (Rodent Diet #20110615029, Shanghai SLAC Laboratory Animal Co. Ltd.) was available ad libitum. Temperature and humidity were monitored and recorded twice daily.
as §4, §3

[6] = 1.0 mg/kg IV once daily 4 days, after the first administration, no abnormalities on days 2, 3, 4

In the case of CC[C@@H](C(=O)[C@@H](C)[C@@H](O)[C@H](C)[C@@H]1O[C@@H]([C@@H](CC)C(=O)O)CC[C@@H]1C)[C@H]1O[C@]2(C=C[C@@H](O)[C@]3(CC[C@@](C)([C@H]4CC[C@](O)(CC)[C@H](C)O4)O3)O2)[C@H](C)C[C@@H]1C [salinomycin sodium], the Clinical observations (ICR mice [1]; 0.1 mg/kg IV once daily 4 days) is reported as “no abnormalities”, the Clinical observations (ICR mice [1]; 0.3 mg/kg IV once daily 4 days, dissipated after 3 hours, no abnormalities on days 2, 3, 4) is reported as “skin cold to the touch after the first administration” and the Clinical observations (ICR mice [1]; [6]) is reported as “decreased activity, decreased grasping, and skin cold to the touch”. The Mortality (ICR mice [1]; 3.0 mg/kg IV) was “died shortly after administration”, the Body weight (ICR mice [1]; each group surviving administration, IV once daily 4 days, FIG. 6) was “relatively stable” and the Clinical observations (ICR mice [2]; 0.1 mg/kg IV once daily 4 days) was “no abnormalities”. For the same compound, the Clinical observations (ICR mice [2]; 0.3 mg/kg IV once daily 4 days) was “no abnormalities”, the Clinical observations (ICR mice [2]; [6]) was “decreased activity, decreased grasping, and laying prostrate” and the Mortality (ICR mice [2]; 3.0 mg/kg IV) was “died shortly after administration”. The Body weight (ICR mice [2]; each group surviving administration, IV once daily 4 days, FIG. 7) was “relatively stable”, the Clinical observations (ICR mice [3]; 0.1 mg/kg IV once daily 5 days) was “decreased activity (e.g., more time spent laying prostrate), rapid breathing, and partially-closed eyelids” and the Clinical observations (ICR mice [3]; 0.3 mg/kg IV once daily 5 days) was “decreased activity levels, partially-closed eyelids, and skin cold to the touch”. For the same compound, the “Body weight change relative to Day 1” value (ICR mice [3]; 0.1, 0.3 mg/kg IV once daily 5 days, FIG. 4) was “all groups added weight”, the Clinical observations (ICR mice [4]; 0.1 mg/kg IV once daily 4 days) was “no abnormalities” and the Clinical observations (ICR mice [4]; 0.3 mg/kg IV once daily 4 days, after initial administration, no abnormalities on days 2, 3, 4) was “slight decrease in activity”. The Body weight (ICR mice [4]; 1 mg/kg IV once daily 4 days) was “decreased steadily”, the Clinical observations (ICR mice [4]; 1.0 mg/kg IV once daily 4 days, no abnormalities on days 2, 3, 4) was “decreased activity and leaning” and the Body weight (ICR mice [4]; 0.1 and 0.3 mg/kg IV once daily 4 days) was “remained relatively stable”. The Clinical observations (ICR mice [5]; 1.5 mg/kg IV once daily 5 days) was “decreased activity levels”, the Recovery (ICR mice [5]; 1.5 mg/kg IV once daily 5 days) was “returned to normal function at the conclusion of the study” and the Body weight (ICR mice [5]; 2 mg/kg IV once daily 5 days) was “lost weight”. For the same compound, the Clinical observations (ICR mice [5]; 2.0 mg/kg IV once daily 5 days, post dosage) was “decreased activity and rapid breathing”, the Mortality (ICR mice [5]; 2.0 mg/kg IV once daily 5 days, two mice) was “One of the animals dosed at 2.0 mg/kg was found dead on day 4” and the Clinical observations (ICR mice [5]; 3.0 mg/kg IV once daily 5 days, after dosing) was “decreased activity, rapid breathing and loss of reflex activity”. For the same compound, the Body weight (ICR mice [5]; 1.5 and 3.0 mg/kg IV once daily 5 days) was “stable”.
